Results as given in patent US11883407B2, “Medicament for the treatment of chronic cough” (Shionogi & Co., Ltd., priority 2018, dated 2024).
Like-named read-outs stand apart in the source and are kept apart here.

Columns and labels:
[1] = tested on: nerve fibers of the ganglion inferius; conditions: guinea pig lung tissue; cited from earlier work
[2] = human, in vivo; cited from earlier work
[3] = tested on: pulmonary vagal afferent C and A fibers; conditions: cited from earlier work
[4] = cited from earlier work
[5] = Study MK-7264-012 (NCT02612610) of Gefapixant: taste-related adverse events; format: in vivo, human; conditions: 50 mg; difference between treatment groups
Method: In addition, a large number of clinical trial protocols for AF-219 (MK-7264, Gefapixant) and their results are recorded on ClinicalTrials.gov. For example, the results of a trial in which 253 of the 367 candidate patients were randomly assigned to a twice daily oral administration group of a placebo, 7.5 mg, 20 mg or 50 mg of AF-219 to confirm the therapeutic effect after 12 weeks, have been published under the identification number NCT02612610. Among the trial results, it was published that as one of the adverse events, for example, dysgeusia was confirmed in each dose group: 9.52% (7.5 mg administration group, 6 out of 63 cases), 33.33% (20 mg administration group, 21 out of 63 cases) and 47.62% (50 mg administration group, 30 out of 63 cases). […]
Based on the above results, for the proportion of subjects who experienced any of the taste-related adverse events, the study design of each study was taken into account, and as the difference between each investigational drug and placebo, the mean of differences of incidence in the same subject between the treatments and the two-sided 95% confidence interval thereof were calculated for Test Example 6, and the difference of incidence between the Gefapixant 50 mg treatment group and the placebo treatment group and the two-sided 95% confidence interval thereof were calculated for the study MK-7264-012.

[6] = tested on: patients with chronic cough; conditions: cited from earlier work
[7] = cited from earlier work; for dysgeusia as adverse event: 12 weeks
[8] = 50 mg twice daily, 63 subjects in safety analysis

TNP-ATP
action potential in nerve fibers of the ganglion inferius evoked by ATP or αβ-methylene ATP [1]: almost completely suppressed

Cc1cnc(-c2cc(O[C@@H]3CCOC3)cc(C(=O)N[C@H](C)c3cnc(C(F)(F)F)nc3)c2)s1 [BAY-1817080]
number of coughs per 24 hours [2]: a reduction in the number of coughs per 24 hours was confirmed

COc1cc(C(C)C)c(Oc2cnc(N)nc2N)cc1I [AF-353]
action potential in nerve fibers of the ganglion inferius evoked by ATP or αβ-methylene ATP [1]: almost completely suppressed

O=C(O)c1cc(C(=O)O)c(C(=O)N(Cc2cccc(Oc3ccccc3)c2)[C@H]2CCCc3ccccc32)cc1C(=O)O [Compound A-317491, (5-({3-phenoxybenzyl)[(1S)-1,2,3,4-tetrahydro-1-naphthalenyl]amino}carbonyl)-1,2,4-benzenetricarboxylic acid]
activity of pulmonary vagal afferent C and A fibers by α,βmATP [3]: inhibits activity of the pulmonary vagal afferent C and A fibers

CNC(=O)c1cc(F)c(-c2nc3cc(C)ccn3c2C[C@H]2CN(C(=O)OC)CCO2)c(F)c1 [BLU-5937]
taste changes, subjects ([4]; 100 mg (n=16)): 6.3%
partial taste loss, subjects ([4]; 400 mg (n=16)): 6.25%
taste changes, subjects ([4]; 400 mg (n=16)): 37.5%
partial taste loss, subjects ([4]; 800 mg (n=8)): 12.5%
taste changes, subjects ([4]; 800 mg (n=8)): 62.5%
taste changes, subjects ([4]; 1200 mg (n=8)): 25%
course of taste-related adverse events ([4]; single and repeated administration): all taste-related adverse events were transient and sporadic

COc1cc(C(C)C)c(Oc2cnc(N)nc2N)cc1S(N)(=O)=O [Gefapixant]
Difference of incidence of any of the taste-related adverse events (drug − placebo) [5]: 74.6%
hypogeusia as adverse event ([6]; 13 out of 24 cases): 54%
dysgeusia as adverse event ([6]; 21 out of 24 cases): 88%
participants who discontinued the trial due to a taste disturbance (hypogeusia or dysgeusia) ([6]; human, in vivo): 6
taste-related disorder ([6]; patients administered with AF-219): all patients developed some kind of taste-related disorder
reduction of the frequency of daytime cough compared to the placebo group ([6]; patients with chronic cough): 75%
dysgeusia as adverse event ([7]; 7.5 mg twice daily, 6 out of 63 cases): 9.52%
dysgeusia as adverse event ([7]; 20 mg twice daily, 21 out of 63 cases): 33.33%
dysgeusia as adverse event ([7]; 50 mg twice daily, 30 out of 63 cases): 47.62%
Ageusia, number of subjects and incidence [7, 8]: 13 (20.6%)
Any of taste-related adverse events, number of subjects and incidence [7, 8]: 51 (81.0%)
Dysgeusia, number of subjects and incidence [7, 8]: 30 (47.6%)
Hypogeusia, number of subjects and incidence [7, 8]: 15 (23.8%)
